For orientation: melting point means the temperature of the solid-liquid transition.

This is an account of results in patent US20040254189A1, “Jnk inhibitors” (priority 2001, published 2004).

Each structure is given as a SMILES string.

One data set concerns JNK (JNK1 and JNK2). The experiment in a line: Western blot analysis of activated site-specific phosphorylation of JNK in passively sensitized RBL-2H3 cells after antigen stimulation. It counts as cell-based, rat. As to the method: (§1) Rat basophilic leukemia 2H3 (RBL-2H3) cells (JCRB0023 from Health Science Research Resources Bank) were seeded in a 6-well plate or a 60 mm dish (0.5×10^6 cells/ml) and sensitized with the anti-DNP-IgE antibody (1:2000) at 37° C. for 90 minutes, and then washed twice with a glucose/PIPES buffer. After the RBL-2H3 cells were incubated at 37° C. for 15 minutes in the presence of Compound A or DMSO (at a final concentration of 0.1%), DNP-BSA (at a final concentration of 3 ng/ml) was added, and further incubation was performed for 10 minutes. The cells were then washed twice with PBS on ice, the cells were harvested with a scraper in a cell extraction buffer for western blot analysis or kinase assay, and incubated on ice for 15 minutes, and centrifuged (14,500 rpm, 4° C., 15 minutes). The resulting supernatant was recovered.
(§2) Western Blot Analysis: The supernatant of the total protein extracted from the cells was separated by 10% SDS-PAGE. The proteins and phosphorylated proteins were detected by a chemiluminescence technique using an anti-PLCγ-1[pY783] phosphospecific antibody, an anti-PLCγ antibody, an anti-active JNK (pTPpY) antibody, an anti-phospho-MAPK (ERK1/2)(Thr202/[…]) antibody, an anti-phospho-p38MAPK (Thr180/Tyr182) antibody, an anti-p44/42MAP kinase antibody, and an anti-JNK antibody.
(In general: In western blotting, separated proteins are transferred to a membrane and probed.)

For a further data set, the system named is p38MAPK. Kind of data set: Western blot analysis of activated site-specific phosphorylation of p38MAPK in passively sensitized RBL-2H3 cells after antigen stimulation. The conditions noted are these: ten minutes after antigen stimulation. Type of data set: cell-based, rat. On the procedure:
as §1, §2

The test system of the next data set is TNF-α. The experiment in a line: Increase in the amount of TNF-α in ear tissue of IgE-passively sensitized mouse after antigen (DNFB) stimulation. It counts as in vivo. The conditions noted are these: female BALB/c mice, p.o., eight hours after application of DNFB. As to the method:
Female BALB/c mice were passively sensitized systemically by intravenous administration of 0.25 ml of a 20-fold diluted anti-DNP monoclonal antibody. On the following day, skin reactions were induced by applying 10 μl of a 0.15% dinitrofluorobenzene solution (DNFB diluted with a 4:1 mixture of acetone and olive oil) to each side of both ears of mice. Eight hours after the application of DNFB, both ears were cut off and homogenized in 400 μl of PBS using Polytron and then centrifuged (15,000 rpm, 15 minutes, 4° C.). The resulting supernatant was used as a sample. The amount of TNF-α was determined using a commercially available ELISA kit. The amount of proteins in the sample was also determined, and the amount of TNF-α was calculated per mg of protein. A preliminary test was performed in which an auricle sample was taken at certain intervals after the application of the antigen, and a time course of the amount of TNF-α was observed. The drug was orally administered one hour before the application of DNFB.

The subject of the next data set is RBL-2H3 cells. The experiment in a line: Western blot analysis of protein expression amount in RBL-2H3 cells. Type of data set: cell-based, rat. The conditions noted are these: treatment with Compound A. On the procedure: as §1, §2
The test system of another data set is JNK. Kind of data set: JNK kinase assay on protein extract of treated RBL-2H3 cells with c-Jun(1-89) as substrate. Type of data set: cell-based, rat. The conditions noted are these: 10^−5 to 10^−7 mol/l. On the procedure:
as §1
JNK Kinase Assay: The total protein extracted from the cells (250 μg) was incubated for 12 hours with gentle rocking with GST-c-Jun(1-89) sepharose beads (2 μg) at 4° C. After washing, a kinase buffer was used for replacement. ATP ([…]) was added to start the kinase reaction. After incubation was performed at 30° C. for 30 minutes, 10% SDS-PAGE was used for separation. The phosphorylated GST-c-Jun(1-89) was detected by a chemiluminescence technique using an anti-phospho-c-Jun antibody.

In a further data set the test system is peritoneal mast cells. The experiment in a line: Antigen stimulation-induced release of TNF-α from peritoneal mast cells of passively sensitized rat. It counts as cell-based. The conditions noted are these: 10^−9 to 10^−5 mol/l, 60 minutes preincubation, two hours after DNP-BSA. On the procedure:
Female Wistar rats were intraperitoneally administered 2 ml of an anti-DNP-IgE antibody (diluted 250-fold), and killed by exsanguination after 48 hours. 20 ml of a physiological mast cells medium (MCM) was injected into the abdominal cavity, and the lavage was recovered. The lavage was centrifuged at 50×g for seven minutes at 4° C. and then washed twice with MCM. Cells were suspended in 1 ml of a heparin-free MCM at a concentration of 1.25×10^5 cells/mL, and then CaCl2 was added (at a final concentration of 1 mmol/L). The resulting mixture was incubated with Compound A or DMSO (at a final concentration of 0.1%) at 37° C. for 60 minutes, and then DNP-BSA (at a final concentration of 30 ng/mL) was added, and further incubation was performed for two hours. Thereafter, the supernatant was harvested and stored at −40° C. until the amount of TNF-A was measured. The amount of TNF-α was determined using a commercially available ELISA kit.

The next data set deals with PLCγ. The experiment in a line: Western blot analysis of activated site-specific phosphorylation of PLCγ in passively sensitized RBL-2H3 cells after antigen stimulation. The conditions noted are these: ten minutes after antigen stimulation. It counts as cell-based, rat. On the procedure: as §1, §2
A further data set has as its system ERKs. Kind of data set: Western blot analysis of activated site-specific phosphorylation of ERKs in passively sensitized RBL-2H3 cells after antigen stimulation. The conditions noted are these: ten minutes after antigen stimulation. It counts as cell-based, rat. On the procedure: as §1, §2

For the compound `c1ccc(C(OC2CCN(CCCNc3ccc4ncnn4n3)CC2)c2ccccc2)cc1`, the melting point is 136 to 138 °C.

`Cc1c(C(C)(C)C(=O)O)nc2ccc(NCCCN3CCC(OC(c4ccccc4)c4ccccc4)CC3)nn12` had a melting point of 219 to 220 °C.

`O=C(O)/C=C/C(=O)O.c1ccc(C(OC2CCN(CCCCCCOc3ccc4nncn4n3)CC2)c2ccccc2)cc1`: the melting point was in the range of 144 to 146 °C.

`CC(C)(C)c1nnc2ccc(OCCCN3CCC(OC(c4ccccc4)c4ccccc4)CC3)nn12` gave a melting point of 125 to 127 °C.

Take `CCOC(=O)C(C)(C)n1nc2ccc(NCCCN3CCC(OC(c4ccccc4)c4ccccc4)CC3)nn2c1=O.Cl`: the melting point was found to be 162 °C.

In the case of `CC(C)(C)C(=O)OCOC(=O)C(C)(C)n1nc2ccc(NCCCN3CCC(OC(c4ccccc4)c4ccccc4)CC3)nn2c1=O`, the melting point worked out at 162 °C.

With `CC(C)(C(=O)O)c1cn2nc(NCCCN3CCC(OC(c4ccccc4)c4ccccc4)CC3)ccc2n1`, the melting point lay within 205 to 206 °C.

`CCOC(=O)CNC(=O)c1cn2nc(NCCCN3CCC(OC(c4ccccc4)c4ccccc4)CC3)ccc2n1.Cl.Cl` gave a melting point of 205 °C.

For `CCOC(=O)C(C)(C)c1cn2nc(NCCCN3CCC(NC(c4ccccc4)c4ccccc4)CC3)ccc2n1`, the melting point was 115 to 117 °C.

Turning to `c1ccc(C(OC2CCN(CCCCCCNc3ccc4nncn4n3)CC2)c2ccccc2)cc1` (hydrate or solvate), the melting point fell in the range of 124 to 127 °C.

With `CCOC(=O)c1nnc2ccc(NCCCN3CCC(OC(c4ccccc4)c4ccccc4)CC3)nn12` (hydrate or solvate), the melting point fell in the range of 129 to 133 °C.

In turn, `O=C(O)c1nnc2ccc(NCCCN3CCC(OC(c4ccccc4)c4ccccc4)CC3)nn12` (hydrate or solvate) registered a melting point of 102 to 104 °C.

`O=c1[nH]nc2ccc(NCCCN3CCC(OC(c4ccccc4)c4ccccc4)CC3)nn12` (hydrate or solvate) showed a melting point of 156 to 170 °C.

`CC(C)(C(=O)O)n1nc2ccc(NCCCN3CCC(OC(c4ccccc4)c4ccccc4)CC3)nn2c1=O` (hydrate or solvate) yielded a melting point of 181 to 185 °C.

Regarding `CC(C)(C(=O)O)c1cn2nc(NCCCN3CCC(OC(c4ccccc4)c4ccccc4)CC3)ccc2n1.O.O` (hydrate or solvate) [Compound A, 2-[6-[3-[4-(diphenylmethoxy)piperidino]propylamino]imidazo[1,2-b]pyridazin-2-yl]-2-methylpropionic acid dihydrate], the melting point lay within 203 to 205 °C.

For the compound `CC(C)(C(=O)O)c1cn2nc(NCCCN3CCC(OC(c4ccccc4)c4ccccc4)CC3)ccc2n1.O.O` [Compound A, 2-[6-[3-[4-(diphenylmethoxy)piperidino]propylamino]imidazo[1,2-b]pyridazin-2-yl]-2-methylpropionic acid dihydrate], the “effect on specific phosphorylation of JNK (JNK1 and JNK2)” value with JNK (JNK1 and JNK2) (10^−5 to 10^−7 mol/l, ten minutes after antigen stimulation) is “inhibited the specific phosphorylation of JNK (JNK1 and JNK2) in a dose-dependent manner”. Moreover, the “selectivity for JNK activation among cascades activated depending on IgE” value in the data set with JNK (JNK1 and JNK2) (versus PLCγ, ERKs, p38MAPK in RBL-2H3 cells) is given as “selectively inhibits the activation of JNK”. Further, the “influence on activated site-specific phosphorylation of p38MAPK” value in the data set on p38MAPK is on record as “no influence”. For the same compound, in the data set on TNF-α (0.1 to 10 mg/kg, one hour before DNFB), the “effect on the increase in the amount of TNF-α in ear tissue” value is recorded as “inhibited the increase in the amount of TNF-α in a dose-dependent manner”. Besides, the “dose with significant inhibition of the increase in the amount of TNF-α” value with TNF-α (p<0.01 vs. control (Dunnett)) is reported as at least 1 mg/kg. Further, the “expression amount of any other protein” value with RBL-2H3 cells is on record as “not influenced”. In addition, the “JNK activity of protein extract on c-Jun(1-89) substrate” value in the data set with JNK is listed as “inhibited depending on the concentration”. In addition, the “effect on antigen stimulation-induced release of TNF-α” value in the data set with peritoneal mast cells is “inhibited the antigen stimulation-induced release of TNF-α in a concentration-dependent manner”. Moreover, the “influence on activated site-specific phosphorylation of PLCγ” value in the data set with PLCγ is on record as “no influence”. Moreover, the “influence on activated site-specific phosphorylation of ERKs” value with ERKs is listed as “no influence”.
